Some results are limits rather than exact numbers.

Data on 34 molecules can be found in patent US20220041641A1, “QUATERNARY AMMONIUM SALTS AS INHIBITORS OF TRIMETHYLAMINE PRODUCTION” (Senda Biosciences, Inc., priority 2018, published 2022).

One experiment deals with CutC from Proteus mirabilis (Proteus mirabilis, UniProt B4EYG1). Briefly: Cell-based assay for TMA production from a native producer (P. mirabilis). To be noted: d9-TMA from 1 mM d9-choline, 5 h, 37° C.; value 10 given when no fit or % TMA remaining at 10 μM higher than 15%; read-out: Average IC50 Whole cell P. mirabilis. The source says: In each bacterium, CutC was modified into its activated form by a cognate activating enzyme, CutD (protein EDU36696.1 for C. sporogenes; protein WP_004249185.1 for P. mirabilis). […] Trimethylamine may subsequently be converted by human enzymes such as flavin monooxygenase 3 to trimethylamine N-oxide, which might be associated with negative health consequences in humans.
CutC from Proteus mirabilis, sequence (B4EYG1 entry or part of it): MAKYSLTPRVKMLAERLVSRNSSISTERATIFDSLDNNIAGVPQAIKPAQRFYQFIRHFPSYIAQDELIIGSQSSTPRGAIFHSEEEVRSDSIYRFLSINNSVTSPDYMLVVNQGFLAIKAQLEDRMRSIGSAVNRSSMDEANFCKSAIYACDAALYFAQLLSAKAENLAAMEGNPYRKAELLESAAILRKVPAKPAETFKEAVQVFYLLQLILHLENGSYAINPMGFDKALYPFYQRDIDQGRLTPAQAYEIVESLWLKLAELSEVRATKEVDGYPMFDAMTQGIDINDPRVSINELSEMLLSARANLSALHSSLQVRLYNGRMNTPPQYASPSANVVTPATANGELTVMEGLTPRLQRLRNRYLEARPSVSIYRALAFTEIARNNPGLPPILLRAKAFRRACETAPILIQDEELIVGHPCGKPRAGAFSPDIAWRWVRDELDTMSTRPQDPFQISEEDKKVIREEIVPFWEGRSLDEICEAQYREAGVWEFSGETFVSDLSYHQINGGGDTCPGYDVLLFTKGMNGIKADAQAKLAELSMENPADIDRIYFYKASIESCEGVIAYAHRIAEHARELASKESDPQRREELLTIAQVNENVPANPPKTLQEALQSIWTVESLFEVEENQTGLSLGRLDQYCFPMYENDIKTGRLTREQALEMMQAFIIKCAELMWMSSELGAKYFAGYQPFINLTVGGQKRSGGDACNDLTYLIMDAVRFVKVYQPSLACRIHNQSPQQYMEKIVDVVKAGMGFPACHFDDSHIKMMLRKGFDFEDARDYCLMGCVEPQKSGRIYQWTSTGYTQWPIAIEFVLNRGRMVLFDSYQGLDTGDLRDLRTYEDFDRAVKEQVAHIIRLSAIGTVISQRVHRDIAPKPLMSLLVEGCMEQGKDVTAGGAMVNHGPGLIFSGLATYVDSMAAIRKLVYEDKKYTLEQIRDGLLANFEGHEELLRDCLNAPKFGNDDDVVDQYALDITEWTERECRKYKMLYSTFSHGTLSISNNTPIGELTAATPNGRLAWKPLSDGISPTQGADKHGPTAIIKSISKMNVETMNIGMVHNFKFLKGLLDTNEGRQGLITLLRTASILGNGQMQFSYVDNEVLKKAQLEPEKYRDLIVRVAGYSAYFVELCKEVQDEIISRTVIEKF
CutC from Proteus mirabilis, sequence (B4EYG0 entry or part of it, further chain): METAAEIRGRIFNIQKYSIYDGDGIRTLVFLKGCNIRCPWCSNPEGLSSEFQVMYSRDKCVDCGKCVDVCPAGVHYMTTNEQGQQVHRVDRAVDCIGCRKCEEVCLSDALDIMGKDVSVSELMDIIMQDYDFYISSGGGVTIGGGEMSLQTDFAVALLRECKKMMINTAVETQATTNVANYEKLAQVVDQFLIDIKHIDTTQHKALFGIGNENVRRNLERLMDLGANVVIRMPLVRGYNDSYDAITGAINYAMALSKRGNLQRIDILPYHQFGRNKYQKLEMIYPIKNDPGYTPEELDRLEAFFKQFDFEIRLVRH
A compound's ability to inhibit CutC from Proteus mirabilis and C. sporogenes from converting choline into trimethylamine was tested in cells as described. A BHI blood plate was inoculated with a frozen stock of Proteus mirabilis or Clostridium sporogenes under anaerobic conditions. A single colony was isolated from the plate and inoculated into 5 mL BHI supplemented with 1 mM choline under anaerobic conditions. The liquid cultures were grown overnight at 37° C.
To prepare each sample, 300 μL of the saturated culture was then inoculated into a 30 mL dilution blank under anaerobic conditions. 1 mM (trimethyl-d9)-choline and a sufficient amount of a compound to obtain a final concentration of 10 μM were added to the inoculated dilution blank. […] The mixture was incubated at 37° C. for 5 h. […] After centrifugation, the samples were analyzed by LCMS to determine the amount of d9-TMA produced.
With `C#CC[N+](C)(C)CCC` [Compound 204, dimethyl(prop-2-yn-1-yl)propylazanium Iodide], the IC50 (commonly the concentration that gives 50% inhibition) was found to be 0.66 µM.
On the same count and under the same terms, the value for `C=CC[N+](C)(C)CCO` [Compound 182, (2-hydroxyethyl)dimethyl(prop-2-en-1-yl)azanium Bromide] was 3.15 µM; that for `C#CC[N+](C)(C)CC` [Compound 206, ethyldimethyl(prop-2-yn-1-yl)azanium Iodide] was 0.069 µM; that for `COCC[N+](C)(C)CF` [Compound 228, (fluoromethyl)(2-methoxyethyl)dimethylazanium Iodide] was more than 10 µM.
On to `C#CC[N+](C)(C)CCN` [Compound 183, (2-aminoethyl)dimethyl(prop-2-yn-1-yl)azanium], for which the IC50 was more than 10 µM.
For the molecule `C[N+](C)(CCO)CCO` [Compound 157, 2-hydroxy-N-(2-hydroxyethyl)-N,N-dimethylethan-1-aminium Iodide], the IC50 was not below 10 µM.
In the case of `C#CC[N+]1(CF)CCC[C@H]1CO` (stereo partly drawn) [Compound 205, (2S)-1-(fluoromethyl)-2-(hydroxymethyl)-1-(prop-2-yn-1-yl)pyrrolidin-1-ium Iodide], the IC50 came to 8.3 µM.
Same read-out and setting: next, `C#CC[N+](C)(C)C[C@H](C)C(=O)OC` [Compound 175, [(2S)-3-methoxy-2-methyl-3-oxopropyl]dimethyl(prop-2-yn-1-yl)azanium]: 0.17 µM; `C#CC[N+](C)(C)Cc1ncno1` [Compound 224]: 0.223 µM.
As for `CSCC[N+](C)(C)CF` [Compound 229, (fluoromethyl)dimethyl[2-(methylsulfanyl)ethyl]azanium], the IC50 was more than 100 µM.
With `C#CC[N+](C)(C)CC(C)=O` [Compound 197, dimethyl(2-oxopropyl)(prop-2-yn-1-yl)azanium Bromide], the IC50 worked out at 4.97 µM.
Still for that read-out and setting: the value for `C#CC[N+](C)(C)CF` [Compound 179, (fluoromethyl)dimethyl(prop-2-yn-1-yl)azanium Iodide] was 0.11 µM.
Take `C=C(C[N+](C)(C)CC(=C)C(=O)O)C(=O)O` [Compound 156, 2-carboxy-N-(2-carboxyallyl)-N,N-dimethylprop-2-en-1-aminium Bromide]: the concentration for half-maximal inhibition (IC50) was not below 10 µM.
Consider `C#CC[N+]1(CC#C)CC[C@@H](O)C1` [Compound 200, (3R)-3-hydroxy-1,1-bis(prop-2-yn-1-yl)pyrrolidin-1-ium], for which the IC50 was 2.74 µM.
The same measure, in the same setting: the value for `C[N+](C)(C)CC1CC1` [Compound 178, (cyclopropylmethyl)trimethylazanium Iodide] was not below 10 µM; that for `C[N+](C)(CCO)CC1CCC1` [Compound 194, (cyclobutylmethyl)(2-hydroxyethyl)dimethylazanium Bromide] was more than 10 µM; that for `C#CC[N+](C)(C)Cc1nnn[nH]1` [Compound 177, dimethyl(prop-2-yn-1-yl)[(1H-1,2,3,4-tetrazol-5-yl)methyl]azanium] was 7.57 µM.
On the same count and under the same terms, the value for `C#CC[C@@H](C(=O)O)[N+](C)(C)C` [Compound 152, (S)-1-carboxy-N,N,N-trimethylbut-3-yn-1-aminium Iodide] was not below 10 µM; that for `C#CC[N+](C)(C)CCO[C@@H]1O[C@H](CO)[C@@H](O)[C@H](O)[C@H]1O` [Compound 106, N,N-dimethyl-N-(2-(((3R,4S,5S,6R)-3,4,5-trihydroxy-6-(hydroxymethyl)tetrahydro-2H-pyran-2-yl)oxy)ethyl)prop-2-yn-1-aminium 2,2,2-trifluoroacetate] was not below 10 µM.
Consider `C=C(C[N+](C)(C)CF)C(=O)O` [Compound 171, (2-carboxy-2-methylideneethyl)(fluoromethyl)dimethylazanium Iodide], for which the IC50 was not below 10 µM.
With `C[N+](C)(CCO)Cc1ccccc1` [Compound 173, benzyl(2-hydroxyethyl)dimethylazanium], the IC50 is not below 10 µM.
The same measure, in the same setting: the value for `C#CC[N+]1(CC#C)CCCC1` [Compound 188, 1,1-bis(prop-2-yn-1-yl)pyrrolidin-1-ium Bromidebromide] was more than 10 µM; that for `C#CC[N+](C)(C)CC(=C)F` [Compound 209, 2-fluoro-N,N-dimethyl-N-(prop-2-yn-1-yl)prop-2-en-1-aminium 2,2,2-trifluoroacetate] was 6.8 µM.
Still for that read-out and setting: next, `C#CC[N+](C)(C)CCC(=O)NS(C)(=O)=O` [Compound 215, [2-(methanesulfonylcarbamoyl)ethyl]dimethyl(prop-2-yn-1-yl)azanium]: 0.409 µM; `C#CC1CCC[N+]1(C)C` (centres unmarked) [Compound 226]: 0.244 µM; `C#CC[N+](C)(C)C[C@@H](C)C(=O)O` [Compound 162, (R)—N-(2-carboxypropyl)-N,N-dimethylprop-2-yn-1-aminium Chloride]: 0.29 µM.
The same measure, in the same setting: next, `C#CC[N+](C)(C)CC(=O)O[C@H]1CO[C@H]2[C@@H]1OC[C@H]2OC(=O)C[N+](C)(C)CC#C` [Compound 69, N,N′-((((3R,3aR,6S,6aR)-hexahydrofuro[3,2-b]furan-3,6-diyl)bis(oxy))bis(2-oxoethane-2,1-diyl))bis(N,N-dimethylprop-2-yn-1-aminium) bistrifluoroacetate]: not below 10 µM.

Staying with this experiment, now noted: read-out: Average IC50 Whole cell P. mirabilis; d9-TMA from 1 mM d9-choline, 5 h, 37° C.; value 10 given when no fit or % TMA remaining at 10 μM higher than 15%.
On to `C[N+](C)(CCO)CCF` [Compound 186, (2-fluoroethyl)(2-hydroxyethyl)dimethylazanium], for which the IC50 was more than 10 µM.
On the same count and under the same terms, next, `C[N+](C)(C)CCC[PH](=O)O` [Compound 147, 3-(hydroxyhydrophosphoryl)-N,N,N-trimethylpropan-1-aminium Chloridechloridechloridechloridechloride]: not below 10 µM; `C[N+](C)(CCO)CCCl` [Compound 198, (2-chloroethyl)(2-hydroxyethyl)dimethylazanium Iodide]: more than 10 µM.

The next experiment relates to CutC/D enzyme. Briefly: Acute mouse model (plasma TMAO on choline diet). It counts as in vivo, male C57BL/6 mice. Conditions: Table 4d, 10 mg/kg oral gavage days 1-3. How it is done:
The following acute mouse model may be used to determine inhibition of the CutC/D enzyme and thus the inhibition of the formation of trimethylamine (TMA) from choline.
On day 1, male C57BL/6 mice were given a chemically defined diet (Tekland Global Rodent Diet 2018) containing 1.0% choline (g/g) for the duration of the experiment. Concurrently on day 1, mice were orally gavaged with 200 μL of compounds of interest (formulated in water). Mice were orally gavaged with the compounds and vehicle control again on day 2 and day 3 at a fixed time. Twenty hours after the last gavage, mice were sacrificed, and plasma was collected and prepared for detection of trimethylamine-N-oxide (TMAO) via liquid chromatography with on-line tandem mass spectrometry (LC-MS/MS). Food consumption and mouse weight were measured each day.
Plasma samples were prepared for LCMS as follows: An aliquot of 20 μL plasma sample was protein precipitated with 200 μL internal standard solution (100 ng/mL Labetalol & 100 ng/mL Tolbutamide & 100 ng/mL Diclofenac in acetonitrile, the mixture was vortex-mixed and centrifuged at 4000 rpm for 15 min, 4° C. An aliquot of 100 μL supernatant was transferred to the sample plate for LCMS injection. 1 μL of sample was injected onto an LC column for TMAO LCMS analysis.
Concentrations of TMAO were determined with a calibration curve ranging 0.05-100 μM for d9-TMAO in control plasma.
With `C#CC[N+](C)(C)CCCCOC1O[C@@H](C)[C@@H](OC(=O)CCC)[C@@H](OC(=O)CCC)[C@@H]1OC(=O)CCC.[Br-]` (stereo partly drawn) [Compound 58, N,N-dimethyl-N-(prop-2-yn-1-yl)-4-(((3S,4R,5R,6S)-3,4,5-tris(butyryloxy)-6-methyltetrahydro-2H-pyran-2-yl)oxy)butan-1-aminium bromide], the “% change from vehicle control + choline diet” value (from here on “% change”) was −46%.

The same experiment, now with this note: Table 4d, 10 mg/kg oral gavage days 1-3, plasma 20 h after last gavage.
In the case of `C#CC[N+](C)(C)CCCCOC1O[C@@H](C)[C@@H](OC(=O)CCC)[C@@H](OC(=O)CCC)[C@@H]1OC(=O)CCC.[Br-]` (stereo partly drawn) [Compound 58, N,N-dimethyl-N-(prop-2-yn-1-yl)-4-(((3S,4R,5R,6S)-3,4,5-tris(butyryloxy)-6-methyltetrahydro-2H-pyran-2-yl)oxy)butan-1-aminium bromide], the “Mean plasma TMAO” value was found to be 10.1 µM.

The same experiment, now with this note: Table 4d, 35.4 mg/kg oral gavage days 1-3.
Turning to `CC(=O)OC[C@H]1OC(OCC[N+](C)(C)C2CC2)[C@H](OC(C)=O)[C@@H](OC(C)=O)[C@@H]1OC(C)=O.[I-]` (stereo partly drawn) [Compound 312, N,N-dimethyl-N-(2-(((3R,4S,5R,6R)-3,4,5-triacetoxy-6-(acetoxymethyl)tetrahydro-2H-pyran-2-yl)oxy)ethyl)cyclopropanaminium iodide], the “% change” value is recorded as −38%.

The same experiment, now with this note: Table 4d, 35.4 mg/kg oral gavage days 1-3, plasma 20 h after last gavage.
Consider `CC(=O)OC[C@H]1OC(OCC[N+](C)(C)C2CC2)[C@H](OC(C)=O)[C@@H](OC(C)=O)[C@@H]1OC(C)=O.[I-]` (stereo partly drawn) [Compound 312, N,N-dimethyl-N-(2-(((3R,4S,5R,6R)-3,4,5-triacetoxy-6-(acetoxymethyl)tetrahydro-2H-pyran-2-yl)oxy)ethyl)cyclopropanaminium iodide], for which the “Mean plasma TMAO” value came to 11.69 µM.

Still in this experiment, the particulars now being: Table 4d, 100 mg/kg oral gavage days 1-3.
`C#CC[N+](C)(C)CCOC1OC[C@@H](OC(C)=O)[C@@H](OC(C)=O)[C@H]1OC(C)=O.[Br-]` (stereo partly drawn) [Compound 9, N,N-dimethyl-N-(2-(((3R,4R,5R)-3,4,5-triacetoxytetrahydro-2H-pyran-2-yl)oxy)ethyl)prop-2-yn-1-aminium bromide]: the “% change” value was 80%.
`C#CC[N+](C)(C)CCO[C@@H]1OC[C@H](OC(C)=O)[C@H](OC(C)=O)[C@H]1OC(C)=O.[I-]` [Compound 10, N,N-dimethyl-N-(2-(((3R,4S,5S)-3,4,5-triacetoxytetrahydro-2H-pyran-2-yl)oxy)ethyl)prop-2-yn-1-aminium Iodide]: the “% change” value is given as −21%.

The same experiment, now with this note: Table 4d, 100 mg/kg oral gavage days 1-3, plasma 20 h after last gavage.
Turning to `C#CC[N+](C)(C)CCOC1OC[C@@H](OC(C)=O)[C@@H](OC(C)=O)[C@H]1OC(C)=O.[Br-]` (stereo partly drawn) [Compound 9, N,N-dimethyl-N-(2-(((3R,4R,5R)-3,4,5-triacetoxytetrahydro-2H-pyran-2-yl)oxy)ethyl)prop-2-yn-1-aminium bromide], the “Mean plasma TMAO” value stood at 33.91 µM.
Same read-out and setting: the value for `C#CC[N+](C)(C)CCO[C@@H]1OC[C@H](OC(C)=O)[C@H](OC(C)=O)[C@H]1OC(C)=O.[I-]` [Compound 10, N,N-dimethyl-N-(2-(((3R,4S,5S)-3,4,5-triacetoxytetrahydro-2H-pyran-2-yl)oxy)ethyl)prop-2-yn-1-aminium Iodide] was 14.9 µM.
